Test results published in US6872712B1, “Cyclic glycerophosphates and analogs thereof” (Yeda Research and Development Co. Ltd., priority 1999, dated 2005).

Columns and labels:
[1] = tested on: cell lysate phosphatases; assay: Inhibition of phosphatase activity of cell lysate (PNPP substrate); assay type: biochemical; settings: 50 μM, 50 mM PNPP, 90 minutes at 37° C., pH 7.4
Experimental: Inhibition of phosphatase activity of cell lysate by cyclic phosphates was assayed in 1.0 ml of 50 mM Tris-HCl buffer, pH 7.4, containing 50 mM p-nitrophenyl phosphate, PNPP, as a substrate. Reaction was initiated by the addition of crude cell lysate (100 μg/ml final protein concentration) and terminated after 90 minutes at 37° C. by an addition of 50 μl of 1M NaOH. […] Assays were conducted under the same conditions as above in the presence of 50 μM cyclic phosphate. The enzyme activity in the absence of inhibitor was taken as 100% activity.

[2] = tested on: tyrosine phosphorylated proteins in CHO cells; assay: Tyrosine phosphorylation in CHO cells (Western blot with anti-phosphotyrosine antibodies); assay type: cell-based, Chinese hamster; settings: CHO cells, 1, 3, 5 or 10 mins at 37° C., 1 μM or 2 μM, monoclonal antibodies (FIG. 2)
Experimental: Chinese hamster ovary (CHO) cells (Puck, 1985; Gottesman, 1987) and NIH-3T3 cells (NIH), were used in the following experiments. CHO cells were grown at 37° C. in a humidified 5% CO2 atmosphere in 60×15 mm Petri dishes (Falcon) containing F12 medium supplemented with 10% fetal calf serum (FCS) and 2 mM glutamine. When reaching near confluence, the cells were placed under overnight starvation by replacing the medium to F12+2 mM glutamine with 0.1% FCS. The stimulation experiments were performed with cells which were under starvation for 12-18 hours.
(§1) The cyclic phosphates 1,3 cGP, 1,3 cPP, 1,2 cGP, 1,2 cPP, P-1,3 cGP and P-1,3 cPP and the controls αGP and βGP were dissolved in HBSS, or methanol to form stocks of 1 mM or 10 mM. They were diluted into the cell culture medium to a final concentration of up to 20 μM. At the assigned stimulation time (0.5-20 min.) the medium was aspirated under vacuum and the cells were washed 3 times with cold (4° C.) phosphate buffered saline (PBS). […] The protein concentration in each sample, as evaluated by the Bradford assay, was in the range of 1-1.5 mg/ml. […] Bound antibodies were detected by horseradish peroxidase-conjugated anti-rabbit antibodies (Transduction Laboratories, Lexington Ky.) after 2 hours incubation at room temperature, using the conventional ECL detection method. […]

[3] = tested on: perforated CHO cells; assay: Intracellular binding in perforated CHO cells (displacement of 1,3-cP32P); design: species or system Chinese hamster; settings: 20 μM 1,3-cP32P, 5 minutes at 4° C., increasing amounts of competitor (FIG. 9)
Experimental: Radioactivity was scored after 2 washings with PBS at 4° C. as above. […] In this set of experiments the number of displaceable (i.e. specifically bound) ligands was estimated to be in the range of 10^7-10^8 per cell.

[4] = tested on: T47D human breast cancer cells; assay: Proliferation of T47D human breast cancer cells (3H-thymidine); assay type: cell-based; settings: 50 μM 1,3-cPP salt, days 1, 2 and 3 (P 0.0370, 0.0192, 0.0238) (FIG. 12)
Experimental: In this experiment, 8×10^4 T47D (clone 11) human breast cancer cells were plated in sets of 6 in 96 well microtiter plates and titrated concentrations (1-50 μM final concentrations) of 1,3-cPP salt in complete medium were added to the cultures at the beginning of the experiment only in a total volume of 200 μl per well. Plates were incubated at 37° C. over the course of 5 days, where 1 plate was pulsed with ^3H-thymidine (Sigma) overnight each day and subsequently frozen. All the plates were harvested together (Packard Micromate 196 Harvester, Merriden, Conn.) and scored on a 96 well plate reader (Packard Matrix 96, Merriden, Conn.).

[5] = Stability of cyclic phosphates in cell lysates (TLC); settings: 10 mg/ml in PBS mixed with CHO or NIH-3T3 cell lysate (0.1 mg/ml protein), 37°, up to 24 hours
Excerpt: This distinct difference allowed the qualitative detection of hydrolysis of the cyclic phosphate.

[6] = tested on: K562 leukemia cells; assay: Differentiation of K562 leukemia cells (hemoglobin, benzidine assay); assay type: cell-based; settings: 4 days, 10 μM 1,3 cPP in combination with 1.5 mM sodium butyrate (FIG. 13)
Experimental: K562 leukemia cells are able to differentiate to the erythroid lineage. Such differentiation is characterized by the cells' ability to synthesize hemoglobin. Sodium butyrate is a known differentiation agent of such leukemia cells.
In this example, the ability of 1,3 cPP, α-GP and sodium butyrate alone and n combination to cause differentiation of K562 cells was evaluated using the known benzidine assay.
K562 cells were incubated for a period of 4 days with the following: • (a) growth medium (control); • (b) 10 μM of 1,3 cPP; • (c) […] of α-GP; • (d) 1.5 mM of sodium butyrate; • (e) a combination of sodium butyrate and 1,3 cPP; and • (f) sodium butyrate and α-GP.

[7] = tested on: CHO cells; assay: Uptake of 32P labeled 1,3-cPP by CHO cells; assay type: cell-based, Chinese hamster; settings: intact CHO cells, increasing amounts of unlabeled compound
Experimental: After 2 washings with PBS the cells were disintegrated in 1 M NaOH and radioactivity was scored with a β counter. The insert presents the magnified uptake profile for short incubations (up to 2 minutes) where the intercept (0 time incubation) corresponded to approximately 3×10^6 molecules per cell, while at equilibrium (above 2 hours incubation) incorporation corresponded to approximately 2×10^8 molecules per cell.

[8] = Stability of cyclic phosphates in PBS / aqueous solution (TLC); assay type: physicochemical; settings: 10 mg/ml in PBS, 37°, up to 24 hours
Experimental: These possibilities were tested with the 4 cyclic phosphates (1,2 cGP, 1,3 cGP, 1,2 cPP and 1,3 cPPP (see Appendix A) in either aqueous solution or in cell lysates of CHO or NIH-3T3 cells (see Materials and Methods). 10 mg/ml cyclic phosphate in 1 ml of either PBS or PBS mixed with cell lysate (0.1 mg/ml protein) and incubated at 37° for up to 24 hours. Samples were tested at different times by thin layer chromatography on Silica gel 60 with n-propanol, concentrated ammonia, H2O (6:3:1 v/v/v). The Rr values for all 4 cyclic phosphates was in the range of 0.45-0.55 while α-GP and β-GP had Rf=0.14-0.16. This distinct difference allowed the qualitative detection of hydrolysis of the cyclic phosphate.

[9] = tested on: insulin receptor; assay: Tyrosine phosphorylation of the insulin receptor in CHO-T cells; assay type: cell-based; settings: 20 mins, 0.1 μM 1,3 cPP in combination with 0.1 nM insulin (FIG. 10)
Experimental: Group 4: 0.1 μM 1,3, cPP only.
Tyrosine phosphorylation was determined using anti-phosphotyrosine antibody (as described above).

[10] = tested on: tyrosine phosphorylated proteins in NIH 3T3 cells; assay: Tyrosine phosphorylation in NIH 3T3 cells (Western blot with anti-phosphotyrosine antibodies); assay type: cell-based; settings: 1 min or 5 mins at 37° C., 0.5, 1, 2 or 4 μM, monoclonal antibodies (FIG. 3)
Experimental: NIH-3T3 cells were grown under similar conditions in 1640 Eagle medium at 10% bovine calf serum plus 2 mM glutamine.
as §1, with “(PBS). The cells were then freeze-thawed 3 times with liquid nitrogen in 0.5 ml of a lysis buffer of PBS containing 1 mM phenylmethylsulfonyl fluoride, a cocktail of protease inhibitors (aprotinin, leuproptin, pepstatin A, phenanthroline, benzamidine HCl each at a concentration of 10 μg/ml) and a cocktail of phosphatase inhibitors (80 mM β-glycerophosphate, 2 mM EGTA and 50 μM Na3VO4), and then scraped off. The lysate was then vortexed and centrifuged for 2 minutes at 12.000 g.” for “(PBS).”

O=P1(O)OCCCO1 [1,3 cPP, 1,3 cyclic propanediol phosphate]
inhibition of cell lysate phosphatase activity [1]: 15-20% | level of tyrosine phosphorylated proteins [2]: phosphorylation was most markedly seen in the band(s) having a molecular weight of about 35 kD and about 45 kD | displacement of 1,3-cP32P in perforated CHO cells [3]: specific binding | proliferation versus cells in growth medium only [4]: significant inhibition | hydrolysis to the linear form by cell lysate [5]: No hydrolysis | synthesis of hemoglobin relative to sodium butyrate alone [6]: 3 fold | effect of unlabeled competitor on the uptake profile of 1,3-cP32P [7]: remained essentially unaltered | hydrolysis to the linear form in PBS [8]: No hydrolysis | phosphorylation of insulin receptor (117 kD and 200 kD bands) relative to insulin only [9]: almost doubled | level of tyrosine phosphorylated proteins [10]: augmented tyrosine phosphorylation
